Laboratory results from PMC12291851, “Hydrogen Sulfide (H2S)-Donating Formyl Peptide Receptor 2 (FPR2) Agonists: Design, Synthesis, and Biological Evaluation in Primary Mouse Microglia Culture” (Antioxidants, 2025).

How the values were obtained:
[1] = tested on: mouse primary microglial cells; experiment: NO release assay (Griess) in primary microglial cells; assay type: cell-based; settings: for LPS-induced NO production: 1 μM pretreatment 1 h, then LPS 0.1 μg/mL 24 h; for NO levels under basal conditions: 1 μM, no LPS
Procedure: Primary microglial cell cultures were derived from the cortices of 1–2-day-old mouse pups (1pup/1 brain/1 flask). After decapitation, the brains were extracted and immediately placed in cold Hanks’ Balanced Salt Solution (HBSS, Gibco, New York, NY, USA) on ice. The brains were washed at least three times with 7 mL of HBSS and then transferred to 10 mL of fresh culture media consisting of Dulbecco’s Modified Eagle Medium (DMEM) with GlutaMax and high glucose (4.5 g/L) (Gibco, New York, NY, USA) on ice. The tissue was minced and incubated in HBSS containing glucose, bovine serum albumin (BSA; Sigma-Aldrich, St. Louis, MO, USA), and HEPES (Gibco, New York, NY, USA) with 0.025% trypsin at 37 °C for 20 min. The trypsinization was halted by adding DMEM with GlutaMax and high glucose (4.5 g/L) supplemented with 10% heat-inactivated fetal bovine serum (FBS, Gibco, New York, NY, USA). The tissue was then gently triturated to obtain a single-cell suspension. Cells were plated at a density of 3 × 10^5 cells/cm^2 in culture medium composed of DMEM with GlutaMax and high glucose (4.5 g/L), supplemented with 10% heat-inactivated FBS, 100 U/mL penicillin, and 0.1 mg/mL streptomycin (all from Gibco, New York, NY, USA), in poly-L-lysine-coated 75 cm^2 culture flasks. On the ninth day in vitro (maintained at 37 °C, 5% CO2), the flasks were agitated on a horizontal shaker for 1 h at 37 °C and 80 rpm. Following centrifugation, the cells were resuspended in culture medium and seeded at final densities of 1.25 × 10^6 cells/well in 6-well plates, 2 × 10^5 cells/well in 24-well plates, or 4 × 10^4 cells/well in 96-well plates. The purity of microglial cell cultures was assessed as we have shown previously.
Microglia cell cultures were pretreated with the FPR2 agonists 8b (1 µM) or 7b (1 µM) for 1 h and then stimulated with lipopolysaccharide (LPS; 0.1 μg/mL; Escherichia coli 0111:B4; Sigma-Aldrich, St. Louis, MO, USA) for 24 h. The concentration of 1 μM was chosen based on our preliminary data (Supplementary File). Control cultures were treated with the appropriate vehicle. […]
NO (nitrite ion in solution) production from LPS-treated microglial cells was measured using the Griess reaction, as previously described by. After 24 h of treatment, equal volumes of cell culture medium and Griess reagents (Griess A: 0.1% N-1-naphthylethylenediamine dihydrochloride and Griess B: 1% sulfanilamide in 5% phosphoric acid) were combined in a 96-well plate and the absorbance was read at 540 nm using an Infinite M200PRO microplate reader (TECAN, Männedorf, Switzerland). The results were normalized to the NO levels released by vehicle-treated cells (set at 100%) and expressed as a percentage of the control ± SD.

[2] = tested on: IL-18; experiment: IL-18 ELISA in medium of microglial cultures; assay type: cell-based, mouse; settings: 1 μM pretreatment 1 h, then LPS 0.1 μg/mL 24 h
Procedure: (§1) Primary microglial cell cultures were derived from the cortices of 1–2-day-old mouse pups (1pup/1 brain/1 flask). After decapitation, the brains were extracted and immediately placed in cold Hanks’ Balanced Salt Solution (HBSS, Gibco, New York, NY, USA) on ice. The brains were washed at least three times with 7 mL of HBSS and then transferred to 10 mL of fresh culture media consisting of Dulbecco’s Modified Eagle Medium (DMEM) with GlutaMax and high glucose (4.5 g/L) (Gibco, New York, NY, USA) on ice. The tissue was minced and incubated in HBSS containing glucose, bovine serum albumin (BSA; Sigma-Aldrich, St. Louis, MO, USA), and HEPES (Gibco, New York, NY, USA) with 0.025% trypsin at 37 °C for 20 min. […] The purity of microglial cell cultures was assessed as we have shown previously. […]
(§2) To assess the effect of test compounds on IL-18, IL-6, and IL-10 levels, the medium of microglial cell cultures was collected 24 h after LPS treatment. The protein levels of the cytokines IL-18 (Mouse interleukin 18 ELISA kit), IL-6 (Mouse interleukin 6 ELISA kit), and IL-10 (Mouse interleukin 10 ELISA kit; all obtained from FineTest, Wuhan, China) were measured using commercially available enzyme-linked immunosorbent assay kits according to the manufacturer’s instructions. […]

[3] = tested on: IL-6; experiment: IL-6 ELISA in medium of microglial cultures; assay type: cell-based, mouse; settings: 1 μM pretreatment 1 h, then LPS 0.1 μg/mL 24 h
Procedure: as §1, §2

[4] = target: T1, FPR2 (Homo sapiens, UniProt P25090); experiment: FPR2 desensitization: inhibition of WKYMVM-induced Ca2+ mobilization in FPR2-HL60 cells; assay type: cell-based; set-up: expressed in transfected cells; host or cells: HL-60 cells; settings: 10 min preincubation, then 5 nM WKYMVM
T1 sequence (P25090 1-351): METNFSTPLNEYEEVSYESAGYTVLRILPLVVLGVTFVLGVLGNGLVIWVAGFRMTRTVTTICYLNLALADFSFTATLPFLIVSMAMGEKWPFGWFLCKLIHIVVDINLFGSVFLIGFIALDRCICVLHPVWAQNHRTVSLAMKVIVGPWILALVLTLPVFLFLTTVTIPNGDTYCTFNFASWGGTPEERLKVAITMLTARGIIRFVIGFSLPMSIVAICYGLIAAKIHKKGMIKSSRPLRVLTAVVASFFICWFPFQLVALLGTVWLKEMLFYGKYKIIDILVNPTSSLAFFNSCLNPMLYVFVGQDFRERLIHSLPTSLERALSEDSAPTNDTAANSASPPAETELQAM
From the text: Finally, we assessed the ability of compounds to induce receptor desensitization at FPR2 by measuring the inhibition of Ca^2+ mobilization induced by subsequent treatment with a standard FPR2 agonist (IC50, Table 1) because FPR2 undergoes homologous desensitization after stimulation with agonists, resulting in functional antagonism (IC50, Table 1). […] We also evaluated the effects of the thiourea and thioamide derivatives on Ca^2+ mobilization in FPR1-HL60-transfected cells after stimulation with the FPR1 agonist (IC50, Table 1).

Compound: N#Cc1ccc(C[C@H](NC(=O)Nc2ccc(F)cc2)C(=S)N2CCc3ccccc32)cc1 [7b, (S)-1-[3-(4-Cyanophenyl)-1-(indolin-1-yl)-1-thioxopropan-2-yl]-3-(4-fluorophenyl)urea]
- LPS-induced NO production [1]: effectively attenuated
- NO levels under basal conditions [1]: neither compound increased NO levels
- LPS-induced increase of IL-18 level [2]: able to counterbalance the LPS-induced increase
- LPS-induced increase of IL-6 level [3]: able to counterbalance the LPS-induced increase
- Ca2+ Mobilization HL60-FPR2 IC50 (FPR2 desensitization) [4]: submicromolar concentration
- IC50 [4]: 60 ± 20 nM

Compound: N#Cc1ccc(C[C@H](NC(=O)Nc2ccc(Br)cc2)C(=S)N2CCc3ccccc32)cc1 [8b, (S)-1-(4-Bromophenyl)-3-[3-(4-cyanophenyl)-1-(indolin-1-yl)-1-thioxopropan-2-yl]urea]
- LPS-induced NO production [1]: effectively attenuated
- NO levels under basal conditions [1]: neither compound increased NO levels
- LPS-induced increase of IL-18 level [2]: able to counterbalance the LPS-induced increase
- LPS-induced increase of IL-6 level [3]: able to counterbalance the LPS-induced increase
- Ca2+ Mobilization HL60-FPR2 IC50 (FPR2 desensitization) [4]: submicromolar concentration
- IC50 [4]: 7 ± 3 nM
